Test results taken from PubChem BioAssay (NCI).
Several values for one entry are separate records, joined by “and”; a condition that tells them apart may be missing. Identical values can stand only once.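 Cultured in 96-well plates, cells were exposed to test compound for 48 hours across five concentrations. Abbreviation: GI50, concentration required for 50% inhibition of growth. TGI marks complete inhibition of growth.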

Test system: MDA-MB-468 breast
Assay: NCI-60 cell line screen, 48 h

SMILES	GI50	TGI
CNCc1cccc2c1OCCOCCOCCC(C)S(=O)(=O)c1ccc(cc1)-c1cnc(N)c(n1)C(=O)N2 (stereo not given)	1.29 µM	3.71 µM
C#CC#CC#CC#CC#CC#CC#CC#CC[C@@H]1OC[C@@H](COC(=O)O[C@@H](C(=O)O[C@H]2C[C@@]3(O)[C@@H](OC(=O)c4ccccc4)[C@@H]4[C@]5(OC(C)=O)CO[C@@H]5C[C@H](O)[C@@]4(C)C(=O)[C@H](OC(C)=O)C(=C2C)C3(C)C)[C@@H](NC(=O)c2ccccc2)c2ccccc2)O1	0.108 µM	0.56 µM
N/C(=N\C(N)=N\c1nc2ccccc2s1)c1cnccn1	2.47 µM	6.07 µM
CC1=C(CNO)C2=C(C)C3(CC3)[C@@](C)(O)C(=O)C2=C1	0.319 µM	0.92 µM
O=C(N/N=C/c1ccc(F)cc1)c1ccc(C(F)(F)F)nc1Nc1cccc(C(F)(F)F)c1	0.327 µM	1.51 µM
Cc1ccnc(Nc2ccc([N+](=O)[O-])c(NCCN3CCOCC3)n2)c1	0.0185 µM and 0.0273 µM	
CCOc1ccc(Nc2nc(-c3c(C)nc4ncccn34)cs2)cc1	0.303 µM	15 µM
NC(=O)c1ncn(C2OC(CO)C(O)C2O)c1N (stereo not given)	75.6 µM	> 100 µM
COc1cccc(C2C(C#N)=C(N)Oc3cc4c(cc32)OCO4)c1 (stereo not given)	0.0244 µM	0.665 µM
CC1=C2[C@@H](CC1)[C@]1(C)O[C@@](C3CC3)(C[C@H]1OC(=O)CO)[C@H]2OC(=O)/C=C/c1ccccc1	14.6 µM	30.6 µM
COc1cc(OC)cc(-c2ccc(-c3ccc(C(=N)N)cn3)s2)c1	1.72 µM	3.32 µM
COc1ccc(/C(C)=C(\c2ccc(Cl)cc2)c2ccc(OCCN3CCCCCC3)cc2)cc1F	2.65 µM	5.89 µM
Cc1cc(Nc2ccc(Cl)cc2)nc(NCCCNc2ccnc3cc(Cl)ccc23)n1	1.61 µM	3.18 µM
COC(=O)c1ccc2[nH]c(O)c(C(=Nc3ccc(N(C)C(=O)CN4CCN(C)CC4)cc3)c3ccccc3)c2c1	1.28 µM	2.99 µM
CN(C)c1ccc(N=C2C=CC(=C(C#N)C#N)c3ccccc32)cc1	0.393 µM	2.35 µM
Nc1nc(=S)c2[nH]cnc2[nH]1	0.15 µM and 1.04 µM	1.23 µM and 8.93 µM

SMILES	GI50	TGI
C#Cc1cccc(NC(=O)C2CCCN(C(=O)CCl)C2)c1 (stereo not given)	> 82.5 µM	> 82.5 µM
CCN(CC)CCNc1ccc([N+](=O)[O-])c2sc3cc(Cl)ccc3c(=O)c12	17.3 µM	61.6 µM
COc1ccc(-c2cc(-c3ccccc3)nc(NCCNc3ccnc4cc(Cl)ccc34)n2)cc1	0.3 µM	1.21 µM
Cn1ccnc1C(=O)/C=C/c1ccc(C(=O)Nc2c(F)c(F)c(F)c(F)c2F)cc1	1.72 µM	4.33 µM
Clc1ccc2c(NCCCN3CCN(c4nc(N5CCOCC5)nc5ccccc45)CC3)ccnc2c1	1.83 µM	3.66 µM
CNCc1ccc(-c2[nH]c3cc(F)cc4c3c2CCNC4=O)cc1	10.8 µM	25.2 µM
NC(N)=N/N=C(/c1ccccc1)c1ccccc1F		4.94 µM
CCN1CCN(c2nc(NNC(=O)c3ccccc3)nc(N3CCN(C(c4ccccc4)c4ccccc4)CC3)n2)CC1	1.94 µM	4.69 µM
CC1(C)CC[C@]2(C(=O)O)CC[C@]3(C)C(=CC[C@@H]4[C@@]5(C)C/C(=C/c6ccco6)C(=O)C(C)(C)[C@@H]5CC[C@]43C)[C@@H]2C1	3.29 µM	30.9 µM
COc1ccc(Cc2nc3cc(OC)c(OC)cc3c(=O)[nH]2)cc1	3.32 µM	17.1 µM
COc1ccc(/C=C\c2cc(OC)c(OC)c(OC)c2)c(NS(=O)(=O)c2ccc(C(C)(C)C)cc2)c1O	0.304 µM	22.7 µM
CCSc1ncc(Br)c(Sc2nc(N)nc3nc[nH]c23)n1	1.72 µM	7.81 µM
COc1ccc(OCC(O)CN2CCN(c3ccc(Cl)cc3)CC2)cc1 (stereo not given)	8.93 µM	> 100 µM
N#CCC1(n2cc(-c3ncnc4[nH]ccc34)cn2)CN(C2CCN(C(=O)c3ccnc(C(F)(F)F)c3F)CC2)C1	44.2 µM	> 100 µM
COc1ccc(/C=C/C(C)=N/OCC(=O)Nc2ccc(Cl)cc2)cc1	2.52 µM	8.34 µM
